Like-named read-outs stand apart in the source and are kept apart here.

A word on the mortality: it is the percentage killed.

What all share (format): in vivo
Data set [1] has as its system Pieris brassicae. In words: Biological activity on Pieris brassicae (Lepidoptera). The settings on record: 48 h; for mortality at 0.001 %: 0.01%o. On the procedure:
(2) Biological activity on Pieris brassicae (Lepidotera)
Cut-off cauliflower leaves were sprinkled with an aqueous dispersion of the products under examination (see TABLE 5).
After drying, the leaves were infested with 5-day old larvae. The percentage of mortality of the larvae (untreated leaves=0) was determined after 48 hours from treatment.

For data set [2], the system named is Leptinotarsa decemlineata. In words: Biological activity on Leptinotarsa decemlineata (Coleoptera). To be noted: 48 h; for mortality at 0.005 %: 0.05%o. As to the method: (3) Biological activity on Leptinotarsa decemlineata (Coleoptera)
Small potato plants grown in pots were infested with 4-day old larvae, and were then sprinkled with an aqueous dispersion of the products under examination (see Tables 4 and 5).
The mortality percentage (untreated small plants=0) was determined after 48 hours from treatment.

In data set [3] the test system is Culex pipiens. The data set can be described thus: Biological activity on Culex pipiens larvae (Diptera). The settings on record: 24 h. On the procedure:
(4) Biological activity on Culex pipiens (Diptera)
Into glasses containing an aqueous dispersion of the products under examination (see Tables 4 and 5) there were introduced mosquito larvae of third and fourth age.
The mortality percentage of the larvae (glasses containing pure water=0) was determined after 24 hours from treatment.

Data set [4] deals with Tetranychus urticae. The data set can be described thus: Biological activity on adults of Tetranychus urticae (Acari). To be noted: 24 h; for mortality at 0.001 %: 0.01%o. On the procedure:
(5) Biological activity on adults of Tetranychus urticae (Acari)
Discs of bean leaves were infested with adult acari and then sprinkled with an aqueous dispersion of the products under examination (see Tables 4 and 5).
The mortality percentage was determined after 24 hours from treatment (untreated leaf discs, mortality=0).

In data set [5] the test system is Spodoptera littoralis. In words: Biological activity on Spodoptera littoralis (Lepidoptera). To be noted: 48 h; for mortality at 0.005 %: 0.05%o. On the procedure: (7) Biological activity on Spodoptera littoralis (Lepidoptera)
Cut tobacco leaves were sprinkled with an aqueous dispersion of the products under examination (see Tables 4 and 5).
After drying, the leaves were infested with 5-day old larvae.
The percentage of mortality of the larvae was determined after 48 hours from treatment (untreated leaves, mortality=0).

The test system of data set [6] is Blatta orientalis. In words: Biological activity on Blatta orientalis (Ortoptera). To be noted: Blatta orientalis, 48 h, read-out: Activity (mortality class), Blatta O.; for mortality at 0.01 g/m2: 0,01 g/m^2. As to the method: (10) Biological activity on Blatta orientalis (Ortoptera)
The bottom and walls of glass crystallizers were treated uniformly with an acetonic solution of the products under examination (see Tables 4 and 5). After evaporation of the solvent, into each crystallizer were introduced ten 80-100 days old neanides. The crystallizers were then closed with a metal net cover. After 24 hours from the start of the treatment, the insects were transferred to similar untreated crystallizers, and there were appropriately nourished in conventional manner.
The percentage of mortality (untreated insects=0) was determined after 48 hours from the start of the treatment.

The subject of data set [7] is Macrosiphum euphorbiae. In words: Biological activity on Macrosiphum euphorbiae (Aphides). The settings on record: potato plants, 24 h. On the procedure: (1) Biological activity on Macrosiphum euphorbiae (Aphides)
Potato plants grown in pots were infested with adult females of aphides and, after several hours, were sprinked with an aqueous dispersion of the products under examination (see TABLE 5).
The percentage of mortality was assessed after 24 hours after the treatment (untreated plants=0).

The mark [8] stands for this setting: 1%o, Table 5, read-out: Activity (mortality class), Pieris B.
[9] abbreviates: 1%o, Table 5, read-out: Activity (mortality class), Leptinotarsa D.
Setting [10] is: 2 ppm, Table 5, read-out: Activity (mortality class), Culex P. (larvae).
Where [11] appears, read: 1%o, Table 5, read-out: Activity (mortality class), Tetranychus U. (adults).
Setting [12] is: Table 5, read-out: Activity (mortality class), Spodoptera L.
Where [13] appears, read: 1%o, Table 5, read-out: Activity (mortality class), Spodoptera L.
Where [14] appears, read: Table 5, read-out: Activity (mortality class), Pieris B.
Where [15] appears, read: Table 5, read-out: Activity (mortality class), Leptinotarsa D.
Where [16] appears, read: Table 5, read-out: Activity (mortality class), Culex P. (larvae).
The mark [17] stands for this setting: Table 5, read-out: Activity (mortality class), Tetranychus U. (adults).

`CCCCn1nc(C=C(Cl)Cl)nc1OP(=S)(OC)OC` [M 8477]: the mortality at 0.1 % in data set [1] (setting [8]), in data set [2] (setting [9]), in data set [4] (setting [11]) and in data set [5] (setting [13]) was 100% in each case. Besides, in data set [3] (setting [10]), the mortality at 2 ppm was 100%. Besides, the mortality at 0.005 % in data set [5] (setting [12]) is 10 to 69%. In data set [6] (1 g/m^2, Table 5), the mortality at 1 g/m2 amounted to 100%.

Regarding `COP(=S)(OC)Oc1nc(C=C(Cl)Cl)nn1C(C)C` [M 8499], the mortality at 0.001 % in data set [1] (setting [14]) and in data set [4] (setting [17]) was 10 to 69% throughout. Also, the mortality at 0.005 % in data set [2] (setting [15]) was 0 to 9%; in data set [5] (setting [12]), 100%. The mortality at 0.02 ppm in data set [3] (setting [16]) fell in the range of 10 to 69%. The mortality at 0.01 g/m2 in data set [6] (Table 5) is 10 to 69%.

As for `CCCCn1nc(C=C(Cl)Cl)nc1OP(=S)(OCC)OCC` [M 8474], the mortality at 0.001 % in data set [1] (setting [14]) is 100%; in data set [4] (setting [17]), 0 to 9%. The mortality at 0.005 % in data set [2] (setting [15]) and in data set [5] (setting [12]) was 100% throughout. In addition, the mortality at 0.02 ppm in data set [3] (setting [16]) stood at 100%. Moreover, in data set [6] (Table 5), the mortality at 0.01 g/m2 was in the range of 0 to 9%.

Turning to `CCOP(=S)(OCC)Oc1nc(C=C(SC)SC)nn1C` [M 8825], the values for the mortality at 0.001 % in data set [1] (setting [14]) and in data set [4] (setting [17]) were 0 to 9% and 100%, respectively. The mortality at 0.1 % in data set [1] (setting [8]), in data set [2] (setting [9]), in data set [4] (setting [11]) and in data set [5] (setting [13]) was 100% in each case. The values for the mortality at 0.005 % in data set [2] (setting [15]) and in data set [5] (setting [12]) were 100% and 10 to 69%, respectively. In addition, the mortality at 0.02 ppm in data set [3] (setting [16]) was 70 to 99%. Besides, in data set [3] (setting [10]), the mortality at 2 ppm is 100%. In data set [6] (Table 5), the mortality at 0.01 g/m2 was in the range of 10 to 69%. In data set [6] (1 g/m^2, Table 5), the mortality at 1 g/m2 amounted to 100%.

`CCOP(=S)(OCC)Oc1nc(C(O)CSC)nn1-c1ccccc1` (centres unmarked) [M 9173]: the “Activity (mortality class), Macrosiphum E.” value in data set [7] is “++ (100% of mortality)”. Besides, the mortality at 0.1 % in data set [1] (read-out: Activity (mortality class), Pieris B.) was 100%; in data set [2] (read-out: Activity (mortality class), Leptinotarsa D.) it was 100%; in data set [4] (read-out: Activity (mortality class), Tetranychus U. (adults)), 100%; in data set [5] (read-out: Activity (mortality class), Spodoptera L.), 100%. For the same compound, in data set [3] (read-out: Activity (mortality class), Culex P. (larvae)), the mortality at 2 ppm was 100%. The mortality at 1 g/m2 in data set [6] is 100%.

Turning to `CCOP(=S)(OCC)Oc1nc(C2=C(Cl)CCCC2)nn1C` [M 5338/89], the mortality at 0.001 % in data set [1] (setting [14]) was in the range of 10 to 69%; in data set [4] (setting [17]), 70 to 99%. Besides, the mortality at 0.1 % in data set [1] (setting [8]), in data set [2] (setting [9]), in data set [4] (setting [11]) and in data set [5] (setting [13]) was 100% each time. Besides, in data set [2] (setting [15]), the mortality at 0.005 % was 10 to 69%. Moreover, in data set [3] (setting [10]), the mortality at 2 ppm came out at 100%. Besides, in data set [6] (1 g/m^2, Table 5), the mortality at 1 g/m2 came out at 100%.

`CC=Cc1nc(OP(=S)(OCC)OCC)n(CCCC)n1` [M 8497]: the mortality at 0.001 % in data set [1] (setting [14]) was in the range of 70 to 99%; in data set [4] (setting [17]), 10 to 69%. In addition, the mortality at 0.005 % was 100% in data set [2] (setting [15]) and 0 to 9% in data set [5] (setting [12]). Also, the mortality at 0.02 ppm in data set [3] (setting [16]) fell in the range of 0 to 9%. Moreover, the mortality at 0.01 g/m2 in data set [6] (Table 5) is 10 to 69%.

Take `CCOP(=S)(OCC)Oc1nc(C=C(Cl)Cl)nn1CC` [M 5349/40]: the mortality at 0.001 % in data set [1] (setting [14]) and in data set [4] (setting [17]) was 100% throughout. Besides, the mortality at 0.005 % in data set [2] (setting [15]) and in data set [5] (setting [12]) was 100% throughout. Also, the mortality at 0.02 ppm in data set [3] (setting [16]) came to 100%. Moreover, the mortality at 0.01 g/m2 in data set [6] (Table 5) lay within 70 to 99%.

Take `CCOP(=S)(OCC)Oc1nc(C(Br)=C(Br)Br)nn1C` [M 8089, O,O-diethyl-O-(1-methyl-3-tribromovinyl-5-triazolyl)-thiophosphate]: the mortality at 0.1 % in data set [1] (setting [8]), in data set [2] (setting [9]), in data set [4] (setting [11]) and in data set [5] (setting [13]) was 100% in each case. Moreover, the mortality at 2 ppm in data set [3] (setting [10]) came to 100%. The mortality at 1 g/m2 in data set [6] (1 g/m^2, Table 5) was determined as 100%.
